The source of these data is patent publication US20060099173A1, “Topical skin care composition” (priority 2003, published 2006).

Molecules are shown by their SMILES. Like-named read-outs stand apart in the source and are kept apart here.

The conditions of data set [1]: in vivo.
For data set [2] the following is noted: description of the substance; cited from earlier work.
The nature of data set [3]: clinical. The settings on record: human, in vivo.

For the compound `CC1(C)O[C@@H]2C[C@H]3[C@@H]4C[C@H](F)C5=CC(=O)C=C[C@]5(C)[C@@]4(F)[C@@H](O)C[C@]3(C)[C@]2(C(=O)CO)O1` [fluocinolone acetonide, (6,11,16)-6,9-difluoro-11,21-dihydroxy-16,17-[(1-methylethylidene)bis(oxy)]-pregna-1,-4-diene-3,20-dione], in data set [1], the “Percutaneous absorption of unchanged drug into the systemic circulation” value was “minimal” and the Post-dose plasma concentrations result was “undetectably low”. Moreover, the “Stability of the drug substance (light, air, moisture)” value (from here on “Stability of the drug substance”) in data set [2] was “stable in light”.
As usually defined, the Cmax is the maximum level reached in the sampled fluid or tissue. With `Oc1ccc(O)cc1` [hydroquinone, 1,4-benzenediol], in data set [1] (human, 8 weeks), the “Number of subjects with quantifiable plasma concentrations” value was 8 and the “Subjects with quantifiable plasma concentrations” value came to 18%. Also, in data set [1], the “Percutaneous absorption of unchanged drug into the systemic circulation” value is listed as “minimal” and the Post-dose plasma concentrations entry was “undetectably low”. The “Stability of the drug substance” value in data set [2] was “darken on exposure to air”. Moreover, the Cmax in data set [3] was in the range of 25.6 to 86.5 ng/mL.
Consider `CC1=C(/C=C/C(C)=C/C=C/C(C)=C/C(=O)O)C(C)(C)CCC1` [tretinoin, (all-E)-3,7-dimethyl-9-(2,6,6-trimethyl-l-cyclohexen-1-yl)-2,4,6,8-nonatetraenoic acid], for which the values for the Cmax in data set [1] (human) and in data set [3] were 2.0 to 4.99 ng/mL and 2.01 to 5.34 ng/mL, respectively. In addition, the “Percutaneous absorption of unchanged drug into the systemic circulation” value in data set [1] is “minimal”. Also, the “Stability of the drug substance” value in data set [2] is “highly reactive to light and moisture”.
